Test results from patent US8853490B2 (priority 2010, dated 2014).
Where two headings read alike, the source gives them in different places.

Assays:
[1] = tested on: Diplodia maydis (DMA; isolate Warren-IN-96); assay type: cell-based
[2] = tested on: Colletotrichum graminicola (CGR; isolate Carroll-IA-99); assay type: cell-based

| Substance | In vitro antifungal activity (IC50) against D. maydis (DMA) ([1]; high salt conditions) | In vitro antifungal activity (IC50) against D. maydis (DMA) ([1]; low salt conditions) | In vitro antifungal activity (IC50) against C. graminicola (CGR) ([2]; high salt conditions) | In vitro antifungal activity (IC50) against C. graminicola (CGR) ([2]; low salt conditions) |
| --- | --- | --- | --- | --- |
| LB-5220 (r2 5G7): LBNL variant generated through gene shuffling of the LB-5220 mature peptide coding sequence (LKYTGTCRRANNQCKYKGQNNRDTFVKCPTFANKKCTRDGAKCSFDSYSRAVTCD; Synthetic peptide LB-5220 (r2-5G7)) | 12 ppm | 0.1 ppm | 6 ppm | – |
| LB-9827-3A-11E4: LBNL variant generated through gene shuffling of the LB-9827-1 mature peptide coding sequence (LSKYGGECSRKHNTCTYKKGGKNQIVNCPTAANKRCKTDRHHCEYDEYHRRVDCQTPV; LB-9827-3A-11E4) | 0.94 ppm | – | 1.25 ppm | – |
| LB-5220 (r2 6F2): LBNL variant generated through gene shuffling of the LB-5220 mature peptide coding sequence (LKYTGTCRRANNQCKYKGQNNRDTFVKCPTFANKKCTRDGEKCSFDSYSRAVTCD; LB-5220 (r2-6F2)) | 6 ppm | 0.1 ppm | 12 ppm | 0.4 ppm |
| LB-9827-3B-26G11: LBNL variant generated through gene shuffling of the LB-9827-1 mature peptide coding sequence (LSKYGGECSKEHNTCKYLKGGKNQVVACPKAANKKCKTDRHHCEYDEYHKTVDCQTPV; Synthetic peptide LB-9827-3B-26G11) | – | – | 0.63 ppm | – |
| LB-9827-3B-21E10: LBNL variant generated through gene shuffling of the LB-9827-1 mature peptide coding sequence (LSKYGGECSRAHNTCTYRKGGKNQVVNCPSAANKKCKSDRHHCEYDEYHKRVDCQTPV; Synthetic peptide LB-9827-3B-21E10) | 30 ppm | – | 1.25 ppm | – |
| LB-9827-3B-25F2: LBNL variant generated through gene shuffling of the LB-9827-1 mature peptide coding sequence (LSKYGGECSREHNTCTYLKGGKNQVVACGSAANKKCKRDRHHCEYDDYHKTVDCQTPV; Synthetic peptide LB-9827-3B-25F2) | 7.5 ppm | – | 1.25 ppm | – |
| LB-9827-3B-25G5: LBNL variant generated through gene shuffling of the LB-9827-1 mature peptide coding sequence (LSKYGGECSRAHNTCTYRKGGKNQVVKCGTAANKKCKSDRHHCEYDDYHKRVDCQTPV; Synthetic peptide LB-9827-3B-25G5) | 0.47 ppm | – | 1.25 ppm | – |
| LB-5220 (ps 1B4): LBNL variant generated through gene shuffling of the LB-5220 mature peptide coding sequence (LKYTGTCTRKNNQCKYRGQNNRDTFVKCPTFANKRCTRDGAPCSFDSYSRAVTCD; Synthetic peptide LB-5220 (ps-1B4)) | 12 ppm | 0.1 ppm | – | – |
